# ChEMBL document CHEMBL4665825, “Paliasanines A-E, 3,4-Methylenedioxyquinoline Alkaloids Fused with a Phenyl-14-oxabicyclo[3.2.1]octane Unit from Melochia umbellata var. deglabrata” (J Nat Prod, 2020)
# Activity calls are given as the source filed them. No cut-off for these calls is given here.
# Tests used:
# MCF7 = experiment: Antiproliferative activity against human MCF7 cells assessed as reduction in cell viability after 72 hrs by SRB assay; type: functional, cell-based; conditions: MCF7, 72 h
# MDA-MB-231 [1] = experiment: Antiproliferative activity against human MDA-MB-231 cells assessed as reduction in cell viability after 72 hrs by SRB assay; type: functional, cell-based; conditions: MDA-MB-231, 72 h
# [2] = Antiproliferative activity against human KB-VIN cells assessed as reduction in cell viability after 72 hrs by SRB assay; type: functional, cell-based; conditions: KBVIN
# A549 = experiment: Antiproliferative activity against human A549 cells assessed as reduction in cell viability after 72 hrs by SRB assay; type: functional, cell-based; conditions: A549, 72 h
# KB = experiment: Antiproliferative activity against human KB cells assessed as reduction in cell viability after 72 hrs by SRB assay; type: functional, cell-based
# [3] = Selectivity ratio of IC50 for antiproliferative activity against human KB cells to IC50 for antiproliferative activity against KB-VIN cells; type: functional
# MDA-MB-231 [4] = experiment: Induction of cell cycle arrest in human MDA-MB-231 cells assessed as accumulation at S phase at 21 uM measured after 24 hrs by propidium iodide staining based flow cytometry analysis; type: functional
# [5] = system: Human immunodeficiency virus 1; experiment: Antiviral activity against HIV-1 NL4-3 infected in human MT4 cells measured on day 3 by Nano-Glo luciferase assay; type: functional, organism-based; conditions: time 3.0 day
SMILES,IC50 (MCF7) [µM],IC50 (MDA-MB-231 [1]) [µM],IC50 (A549) [µM],IC50 (KB) [µM],IC50 [2] [µM],Ratio IC50 [3],Activity (MDA-MB-231 [4]),Activity [5]
CCCCCCCCc1ccc(OC)c2[nH]c(C)c(OC)c(=O)c12,> 10,> 10,> 10,> 10,> 10,–,–,–
CCCCCCCC[C@H]1CCC(=O)c2[nH]c(C)c(OC)c(=O)c21,6.4,6.7,8.4,17.7,8.6,2,Active,–
CC(=O)O[C@H]1C(=O)[C@@]2(C)[C@H]([C@H](OC(=O)c3ccccc3)[C@]3(O)C[C@H](OC(=O)[C@H](O)[C@@H](NC(=O)c4ccccc4)c4ccccc4)C(C)=C1C3(C)C)[C@]1(OC(C)=O)CO[C@@H]1C[C@@H]2O [PACLITAXEL],0.0135,–,0.0065,0.0077,2.35,–,–,–
CC1(C)C[C@H](O)C[C@@]2(C)OC(=O)C=C12 [LOLIOLIDE],> 10,> 10,> 10,> 10,> 10,–,–,–
CC[C@@H](C)[C@@H]1NC(=O)[C@@H](NC(=O)[C@H](Cc2ccccc2)N(C)C)[C@H](C(C)C)Oc2ccc(cc2)/C=C\NC1=O,> 10,> 10,9.5,> 10,> 10,–,–,–
COc1ccc(OC)c([C@@]2(O)c3ccc4[nH]c(C)c(OC)c(=O)c4c3[C@@H]3CC[C@H]2O3)c1,8.2,> 10,5.9,> 10,> 10,–,–,–
CC1=CC(=O)CC(C)(C)[C@@H]1CC[C@H](C)O,> 10,> 10,> 10,> 10,> 10,–,–,–
CC(C)[C@@H]1NC(=O)[C@@H](NC(=O)/C=C/c2ccccc2)[C@H](C(C)C)Oc2ccc(cc2)/C=C\NC1=O,> 10,> 10,> 10,> 10,> 10,–,–,–
CC1=CC(=O)CC(C)(C)[C@@]1(O)/C=C/[C@@H](C)O [BLUMENOL A],> 10,> 10,> 10,> 10,> 10,–,–,–
CC(=O)/C=C/[C@]1(O)C(C)(C)C[C@H](O)C[C@@]1(C)O,> 10,> 10,> 10,> 10,> 10,–,–,–

# Further lines, with some results ahead:
IC50 (MCF7) [µM],IC50 (MDA-MB-231 [1]) [µM],IC50 (A549) [µM],IC50 (KB) [µM],SMILES,IC50 [2] [µM],Ratio IC50 [3],Activity (MDA-MB-231 [4]),Activity [5]
8,> 10,6.6,> 10,COc1ccccc1[C@@]1(O)c2ccc3[nH]c(C)c(OC)c(=O)c3c2[C@@H]2CC[C@H]1O2,> 10,–,–,–
> 10,> 10,> 10,> 10,Cc1nc2ccc3c(c2c2c1OCO2)[C@@H]1CC[C@H](O)[C@@]3(c2ccccc2)O1,> 10,–,–,inactive
> 10,> 10,> 10,> 10,COc1ccccc1[C@@]1(O)c2ccc3nc(C)c4c(c3c2[C@@H]2CC[C@H]1O2)OCO4,> 10,–,–,inactive
> 10,> 10,> 10,> 10,COc1ccccc1[C@]1(O)c2ccc3nc(C)c4c(c3c2[C@@H]2CC[C@H]1O2)OCO4,> 10,–,–,–
> 10,> 10,> 10,> 10,COc1ccc(OC)c([C@@]2(O)c3ccc4nc(C)c5c(c4c3[C@@H]3CC[C@H]2O3)OCO5)c1,> 10,–,–,inactive
> 10,> 10,> 10,> 10,COc1ccc(OC)c([C@]2(O)c3ccc4nc(C)c5c(c4c3[C@@H]3CC[C@H]2O3)OCO5)c1,> 10,–,–,–
